# Data published in patent publication US8129123B2, “Methods for assessing atherogenesis by determining oxidized phospholipid to apolipoprotein B ratios” (The Regents of the University of California, priority 2004, dated 2012).
# Where two headings read alike, the source gives them in different places.
# Key:
# [1] = MIRACL trial: primary efficacy measure (recurrent ischemic events) over 16 weeks; assay type: in vivo, human; conditions: 2442 patients with baseline data, 16-week follow-up
# Experimental: (§1) The MIRACL study design was previously published. Briefly, the study recruited 3086 patients with unstable angina or non-Q-wave acute myocardial infarction between 24-96 hours after hospital admission at 122 centers in 19 countries. Patients were randomly assigned to double-blind treatment with atorvastatin 80 mg/day or placebo for 16 weeks. The primary efficacy measure was the time to first occurrence of death, nonfatal acute myocardial infarction, cardiac arrest with resuscitation, or worsening angina with new objective evidence of ischemia and requiring emergency re-hospitalization. […] Patients were analyzed on an intention-to-treat basis.
# (§2) Since the baseline and Week 16 distributions of the OxLDL markers were positively skewed, log-transformed values were used in the statistical models and analyses and antilog-transformed for descriptive statistics yielding geometric means and 95% confidence intervals (CI) for baseline, Week 16 and percent change from baseline to Week 16. […] For each marker, the logistic regression model included terms for log-transformed marker and randomized treatment assignment; odds ratios were expressed as the relative odds for each one unit increase in the log-transformed marker. Pearson correlations were calculated to summarize the relationship between OxPL/apoB and Lp(a) at baseline and at Week 16. […]
# [2] = system: oxidized phospholipids (OxPL) on apoB-100 particles; assay: OxLDL-E06 chemiluminescent ELISA (OxPL/apoB and Total apoB-OxPL) in plasma; assay type: in vivo, human
# Experimental: (§3) The MIRACL study design was previously published. Briefly, the study recruited 3086 patients with unstable angina or non-Q-wave acute myocardial infarction between 24-96 hours after hospital admission at 122 centers in 19 countries. Patients were randomly assigned to double-blind treatment with atorvastatin 80 mg/day or placebo for 16 weeks. The primary efficacy measure was the time to first occurrence of death, nonfatal acute myocardial infarction, cardiac arrest with resuscitation, or worsening angina with new objective evidence of ischemia and requiring emergency re-hospitalization. 2739 patients completed the entire 16 week follow-up period, of whom 2442 had baseline blood samples and 2341 had baseline and Week 16 blood samples available for analysis. Blood was collected in EDTA and stored at −70° C. until analysis. Patients were analyzed on an intention-to-treat basis.
# (§4) Chemiluminescent ELISA was used to measure OxLDL markers (FIG. 1A-1C). All samples for a given assay were run in a single assay and internal controls consisting of high and low standard plasma samples were included to detect potential variations between microtitration plates. Each sample was assayed in triplicate and data are expressed as relative light units (RLU) in 100 milliseconds. The intra-assay coefficients of variation for all assays were 6-10%.
# OxLDL-E06 is a measure of the content of oxidized phospholipids (OxPL) per apoB-100 particle using the murine monoclonal antibody E06, which specifically binds to the phosphorylcholine head group of oxidized but not native phospholipids. A 1:50 dilution of plasma in phosphate-buffered saline (PBS) is added to microtiter wells coated with the monoclonal antibody MB47 (5 μg/ml), which specifically binds apoB-100 particles. Under these conditions, a saturating amount of apoB-100 is added to each well and consequently an equal number of apoB-100 particles are captured in each well for all assays. The content of OxPL per apoB-100 is then determined with biotinylated E06. In a previous study we directly measured the amount of apoB-100 bound in each well by the degree of binding of a biotinylated anti-apoB-100 antibody, and compared the OxPL RLU values alone to the ratio of OxPL RLU/apoB-100 RLU and found a correlation of r^2=0.99 (n=1500 samples). Therefore, we arbitrarily assigned the apoB-100 RLU value in the denominator as 1 and report the OxPL/apoB values as OxPL RLU counts only. Note that by design, this assay normalizes the OxPL content per apoB-100 particle and is therefore independent of plasma apoB-100 (and thus LDL-cholesterol) levels.
# (§5) The data for OxLDL-E06 and apoB-IC are presented in two ways: 1) as OxPL/apoB and IC/apoB, which specifically quantifies the content of OxPL and IC, respectively, on each captured apoB-100 particle, and 2) as Total apoB-OxPL and Total apoB-IC, which reflects the OxPL and IC content on all apoB-100 containing particles in plasma, by multiplying the plasma “OxPL/apoB” and “IC/apoB” value by the plasma apoB-100 levels measured independently as noted below.
# Since the baseline and Week 16 distributions of the OxLDL markers were positively skewed, log-transformed values were used in the statistical models and analyses and antilog-transformed for descriptive statistics yielding geometric means and 95% confidence intervals (CI) for baseline, Week 16 and percent change from baseline to Week 16. […]
# [3] = system: apoB-100 immune complexes; assay: Apolipoprotein B-100 immune complexes (IC/apoB and Total apoB-IC, IgG and IgM) chemiluminescent ELISA in plasma; assay type: in vivo, human
# Experimental: as §3, §4, §5
# (§6) Plasma titers of IgG and IgM apoB-IC and malondialdehyde (MDA-LDL) (1:200 plasma dilution) autoantibodies and apoB-IC were measured as previously described.
# Since the baseline and Week 16 distributions of the OxLDL markers were positively skewed, log-transformed values were used in the statistical models and analyses and antilog-transformed for descriptive statistics yielding geometric means and 95% confidence intervals (CI) for baseline, Week 16 and percent change from baseline to Week 16. Inferential analyses included paired-sample t-tests for within treatment group differences in markers at baseline versus Week 16, and independent-sample t-tests for between treatment group differences in markers at Week 16 and between treatment group differences in absolute change in log-transformed markers from baseline to Week 16. Logistic regression models were constructed to summarize the relationships between baseline OxLDL values and the primary efficacy measure of the trial. For each marker, the logistic regression model included terms for log-transformed marker and randomized treatment assignment; odds ratios were expressed as the relative odds for each one unit increase in the log-transformed marker. Pearson correlations were calculated to summarize the relationship between OxPL/apoB and Lp(a) at baseline and at Week 16. Statistical significance was defined as P<0.05.
# [4] = system: MDA-LDL autoantibodies; assay: Autoantibodies to MDA-LDL (IgG and IgM) chemiluminescent ELISA in plasma; assay type: in vivo, human
# Experimental: as §3
# Chemiluminescent ELISA was used to measure OxLDL markers (FIG. 1A-1C). […] Each sample was assayed in triplicate and data are expressed as relative light units (RLU) in 100 milliseconds. […]
# as §6, §2
# [5] = system: Lp(a); assay: Plasma Lp(a) level, chemiluminescent ELISA with antibody LPA4; assay type: in vivo, human
# Experimental: as §1
# (§7) Plasma Lp(a) levels were measured by a chemiluminescent ELISA with monoclonal antibody LPA4, as previously described. […] ApoB-100 levels were measured by a commercially available kit (Behring) and CRP levels as previously described.
# (§8) Since the baseline and Week 16 distributions of the OxLDL markers were positively skewed, log-transformed values were used in the statistical models and analyses and antilog-transformed for descriptive statistics yielding geometric means and 95% confidence intervals (CI) for baseline, Week 16 and percent change from baseline to Week 16. […] Pearson correlations were calculated to summarize the relationship between OxPL/apoB and Lp(a) at baseline and at Week 16. […]
# [6] = system: ApoB-100; assay: Plasma apoB-100 level (Behring kit); assay type: in vivo, human
# Experimental: as §1, §7, §8
# [7] = system: LDL cholesterol; assay: Plasma LDL cholesterol in MIRACL patients; assay type: in vivo, human
# Experimental: as §3, with “MIRACL” left out, “-70°” for “−70°”
# [8] = entire MIRACL population, 16 weeks; cited from earlier work
# [9] = system: LDL cholesterol; conditions: PROVE-IT, two years' treatment, 80 mg atorvastatin versus 40 mg pravastatin; cited from earlier work
# [10] = Week 16, atorvastatin 80 mg/day, ACS patients, geometric mean
smiles,measurement,setting,value
CC(C)c1c(C(=O)Nc2ccccc2)c(-c2ccccc2)c(-c2ccc(F)cc2)n1CC[C@@H](O)C[C@@H](O)CC(=O)O [atorvastatin],patients with a primary endpoint event,[1],10.7%
same,OxPL/apoB mean level,[2]; [10],11048 RLU
same,Total apoB-OxPL mean level,[2]; [10],912 (RLU · mg/dl) × 10^3
same,OxPL/apoB relative increase from baseline,"[2]; baseline to Week 16, 80 mg/day",9.5%
same,Total apoB-OxPL percent change from baseline,"[2]; baseline to Week 16, 80 mg/day",−29.7%
same,"OxPL enrichment of apoB particles (OxPL/apoB), absolute difference compared to placebo","[2]; baseline to Week 16 change, atorvastatin vs placebo",13.4%
same,IC/apoB IgG mean level,[3]; [10],9048 RLU
same,IC/apoB IgM mean level,[3]; [10],3933 RLU
same,Total apoB-IC IgG mean level,[3]; [10],749 (RLU · mg/dl) × 10^3
same,Total apoB-IC IgM mean level,[3]; [10],325 (RLU · mg/dl) × 10^3
same,IgG IC/apoB relative increase from baseline,"[3]; baseline to Week 16, 80 mg/day",9.6%
same,IgM IC/apoB relative increase from baseline,"[3]; baseline to Week 16, 80 mg/day",15.4%
same,Total apoB-IC IgG percent change from baseline,"[3]; baseline to Week 16, 80 mg/day",−29.5%
same,Total apoB-IC IgM percent change from baseline,"[3]; baseline to Week 16, 80 mg/day",−25.7%
same,Autoantibodies to MDA-LDL IgG mean level,[4]; [10],4922 RLU
same,Autoantibodies to MDA-LDL IgM mean level,[4]; [10],1088 RLU
same,IgG and IgM MDA-LDL autoantibody level increase,"[4]; baseline to Week 16, range stated for both groups (atorvastatin and placebo)",9.1-14.4%
same,Lp(a) mean level,[5]; [10],13.0 mg/dL
same,Lp(a) relative increase from baseline,"[5]; baseline to Week 16, 80 mg/day",8.8%
same,ApoB-100 mean level,[6]; [10],87 mg/dL
same,apoB-100 percent change from baseline,"[6]; baseline to Week 16, 80 mg/day",−33.0%
same,LDL cholesterol level after treatment,"[7]; Week 16 (from 124±34 at baseline), 80 mg/day",72 ± 35 mg/dL
same,reduction in LDL cholesterol,"[7]; baseline to Week 16, 80 mg/day",42%
same,patients with a primary endpoint event,[8],14.6%
same,median LDL cholesterol level,[9],62 mg/dL
